Reference: patent US10385022B2, “3-amino-pyridines as GPBAR1 agonists” (HOFFMANN-LA ROCHE INC., priority 2011, dated 2019)

The compounds below were run against human GPBAR1 receptor (Homo sapiens (Human), UniProt Q8TDU6) (assay: functional cAMP assay in CHO-dhfr(minus) cells expressing human GPBAR1 receptors). Settings: CHO-dhfr(minus) cells expressing human GPBAR1, 30 min at 30° C.
Assay type: cell-based
Method in brief: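 CHO-dhfr- cells were transfected with human GPBAR1, and a clone was chosen by cAMP response to lithocholic acid. EC50 values come from the cAMP read-out; specificity was checked in non-transfected CHO cells.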

Chain of human GPBAR1 receptor (Q8TDU6 whole entry): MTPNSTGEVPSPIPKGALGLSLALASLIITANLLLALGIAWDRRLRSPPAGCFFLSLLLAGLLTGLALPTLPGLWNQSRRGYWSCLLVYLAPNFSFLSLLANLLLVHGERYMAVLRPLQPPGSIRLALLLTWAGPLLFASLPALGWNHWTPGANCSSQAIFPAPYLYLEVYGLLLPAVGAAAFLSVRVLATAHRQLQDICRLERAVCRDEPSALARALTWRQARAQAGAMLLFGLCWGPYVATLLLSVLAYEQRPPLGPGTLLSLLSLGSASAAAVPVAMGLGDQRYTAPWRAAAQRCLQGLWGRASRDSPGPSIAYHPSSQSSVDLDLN

SMILES	EC50
CN(C(=O)c1cc(C(F)(F)F)cc(C(F)(F)F)c1)c1cnccc1-c1ccccc1N [Example 222, N-[4-(2-Amino-phenyl)-pyridin-3-yl]-N-methyl-3,5-bis-trifluoromethyl-benzamide]	183 nM
O=C(c1cc(C(F)(F)F)cc(C(F)(F)F)c1)N(CC(F)(F)F)c1cnccc1-c1ccccc1Cl [Example 85, N-[4-(2-Chloro-phenyl)-pyridin-3-yl]-N-(2,2,2-trifluoro-ethyl)-3,5-bis-trifluoromethyl-benzamide]	200 nM
Cc1ccccc1-c1ccncc1N(C)C(=O)c1ccc(Cl)c(Cl)c1 [Example 10, 3,4-Dichloro-N-methyl-N-(4-o-tolyl-pyridin-3-yl)-benzamide]	238 nM
Cc1cc(Cl)ccc1-c1ccncc1N(C)C(=O)c1cc(C(F)(F)F)cc(C(F)(F)F)c1 [Example 30, N-[4-(4-Chloro-2-methyl-phenyl)-pyridin-3-yl]-N-methyl-3,5-bis-trifluoromethyl-benzamide]	1620 nM
COc1c(F)cc(F)cc1-c1ccncc1N(C)C(=O)c1cc(C(F)(F)F)cc(C(F)(F)F)c1 [Example 59, N-[4-(3,5-Difluoro-2-methoxy-phenyl)-pyridin-3-yl]-N-methyl-3,5-bis-trifluoromethyl-benzamide]	190 nM
CS(=O)(=O)c1cc(C(=O)N(CC(N)=O)c2cnccc2-c2ccccc2Cl)cc(C(F)(F)F)c1 [Example 296, N-Carbamoylmethyl-N-[4-(2-chloro-phenyl)-pyridin-3-yl]-3-methanesulfonyl-5-trifluoromethyl-benzamide]	1340 nM
CS(=O)(=O)c1cc(C(=O)N(CC(N)=O)c2cnccc2-c2ccccc2F)cc(C(F)(F)F)c1 [Example 219, N-Carbamoylmethyl-N-[4-(2-fluoro-phenyl)-pyridin-3-yl]-3-methanesulfonyl-5-trifluoromethyl-benzamide]	3030 nM
Cc1ccccc1-c1cc(N2CCN(S(C)(=O)=O)CC2)ncc1N(C)C(=O)c1cc(C(F)(F)F)cc(C(F)(F)F)c1 [Example 17, N-[6-(4-Methanesulfonyl-piperazin-1-yl)-4-o-tolyl-pyridin-3-yl]-N-methyl-3,5-bis-trifluoromethyl-benzamide]	336 nM
COc1cc(-c2ccncc2N(C)C(=O)c2cc(C(F)(F)F)cc(S(C)(=O)=O)c2)c(F)cc1F [Example 284, N-[4-(2,4-Difluoro-5-methoxy-phenyl)-pyridin-3-yl]-3-methanesulfonyl-N-methyl-5-trifluoromethyl-benzamide]	353 nM
Cc1cccnc1-c1ccncc1N(C)C(=O)c1cc(C(F)(F)F)cc(C(F)(F)F)c1 [Example 57, N-Methyl-N-(3-methyl-[2,4′]bipyridinyl-3′-yl)-3,5-bis-trifluoromethyl-benzamide]	351 nM
CN(C(=O)c1cc(C(F)(F)F)cc(S(C)(=O)=O)c1)c1cnccc1-c1ccc(F)cc1OCc1ccccc1 [Example 267, N-[4-(2-Benzyloxy-4-fluoro-phenyl)-pyridin-3-yl]-3-methanesulfonyl-N-methyl-5-trifluoromethyl-benzamide]	3460 nM
Cc1ccccc1-c1ccncc1N(C(=O)c1cc(C(F)(F)F)cc(C(F)(F)F)c1)C1COC1 [Example 200, N-Oxetan-3-yl-N-(4-o-tolyl-pyridin-3-yl)-3,5-bis-trifluoromethyl-benzamide]	1200 nM

Now those with a lower EC50, led by results:

EC50	SMILES
109 nM	COc1cccc(-c2ccncc2N(C)C(=O)c2cc(C(F)(F)F)cc(C(F)(F)F)c2)n1 [Example 98, N-(6-Methoxy-[2,4′]bipyridinyl-3′-yl)-N-methyl-3,5-bis-trifluoromethyl-benzamide]
107 nM	CN(C(=O)c1cc(C(F)(F)F)cc(S(C)(=O)=O)c1)c1cnccc1-c1ccccc1Cl [Example 278, N-[4-(2-Chloro-phenyl)-pyridin-3-yl]-3-methanesulfonyl-N-methyl-5-trifluoromethyl-benzamide]
105 nM	COc1cc(F)ccc1-c1ccncc1N(C)C(=O)c1cc(C(F)(F)F)cc(S(=O)(=O)CCN)c1 [Example 241, 3-(2-Amino-ethanesulfonyl)-N-[4-(4-fluoro-2-methoxy-phenyl)-pyridin-3-yl]-N-methyl-5-trifluoromethyl-benzamide]
57 nM	COc1cc(F)ccc1-c1ccncc1N(CC#N)C(=O)c1cc(C(F)(F)F)cc(S(C)(=O)=O)c1 [Example 228, N-Cyanomethyl-N-[4-(4-fluoro-2-methoxy-phenyl)-pyridin-3-yl]-3-methanesulfonyl-5-trifluoromethyl-benzamide]
6 nM	COc1cc(F)ccc1-c1ccncc1N(C)C(=O)c1cc(C(F)(F)F)nc(C(F)(F)F)c1 [Example 148, N-[4-(4-Fluoro-2-methoxy-phenyl)-pyridin-3-yl]-N-methyl-2,6-bis-trifluoro methyl-isonicotinamide]
30 nM	COc1cc(F)ccc1-c1ccncc1N(C)C(=O)c1cc(SC2COC2)cc(C(F)(F)F)c1 [Example 251, N-[4-(4-Fluoro-2-methoxy-phenyl)-pyridin-3-yl]-N-methyl-3-(oxetan-3-ylsulfanyl)-5-trifluoromethyl-benzamide]
144 nM	CNC(=O)CN(C(=O)c1cc(C(F)(F)F)cc(C(F)(F)F)c1)c1cnccc1-c1ccccc1Cl [Example 102, N-[4-(2-Chloro-phenyl)-pyridin-3-yl]-N-methylcarbamoylmethyl-3,5-bis-trifluoromethyl-benzamide]
29 nM	Cc1ccccc1-c1ccncc1N(C)C(=O)c1cc(C(F)(F)F)cc(S(=O)(=O)N(C)C)c1 [Example 128, 3-Dimethylsulfamoyl-N-methyl-N-(4-o-tolyl-pyridin-3-yl)-5-trifluoromethyl-benzamide]
77 nM	CN(C(=O)c1cc(C(F)(F)F)cc(S(C)(=O)=O)c1)c1cnccc1-c1cccnc1OCC(F)(F)F [Example 279, 3-Methanesulfonyl-N-methyl-N-[2-(2,2,2-trifluoro-ethoxy)-[3,4′]bipyridinyl-3′-yl]-5-trifluoromethyl-benzamide]
99 nM	Cc1ccccc1-c1ccncc1N(CCS(C)(=O)=O)C(=O)c1cc(C(F)(F)F)nc(C(F)(F)F)c1 [Example 163, N-(2-Methanesulfonyl-ethyl)-N-(4-o-tolyl-pyridin-3-yl)-2,6-bis-trifluoromethyl-isonicotinamide]
40 nM	CN(C(=O)c1cc(C(F)(F)F)cc(C(F)(F)F)c1)c1cnccc1-c1ccc(F)cc1F [Example 37, N-[4-(2,4-Difluoro-phenyl)-pyridin-3-yl]-N-methyl-3,5-bis-trifluoromethyl-benzamide]
162 nM	Cc1ccc(F)cc1-c1ccncc1N(C)C(=O)c1cc(C(F)(F)F)cc(S(C)(=O)=O)c1 [Example 276, N-[4-(5-Fluoro-2-methyl-phenyl)-pyridin-3-yl]-3-methanesulfonyl-N-methyl-5-trifluoromethyl-benzamide]
54 nM	COc1cc(F)ccc1-c1ccncc1N(CC1CCCO1)C(=O)c1cc(C(F)(F)F)cc(S(C)(=O)=O)c1 (single isomer, unassigned; (-)) [Example 233, (−)-N-[4-(4-Fluoro-2-methoxy-phenyl)-pyridin-3-yl]-3-methanesulfonyl-N-[1-(tetrahydro-furan-2-yl)methyl]-5-trifluoromethyl-benzamide]
163 nM	CC(C)Oc1ccccc1-c1ccncc1N(C)C(=O)c1cc(C(F)(F)F)cc(C(F)(F)F)c1 [Example 35, N-[4-(2-Isopropoxy-phenyl)-pyridin-3-yl]-N-methyl-3,5-bis-trifluoromethyl-benzamide]
